Our source for the IC50 and antiproliferative activity values is patent US8389505B2, “Adamantane derivatives of AZA-crown ethers and their use in treatment of tumor” (Rudjer Boskovic Institute, priority 2009, dated 2013).

Common to all, as to type: cell-based
The test system of one assay is H 460 (lung carcinoma). Put plainly: MTT proliferation assay, H 460 cells. The settings on record: Homo sapiens, NCI-H460, 72 hours incubation, read-out: IC50 (concentration that causes 50% growth inhibition), H 460. Here is the method: (§1) The described assay was used to test the effects of compounds on the proliferation of various human tumor cell lines, whereby cytostatic and cytotoxic effects on cells can be differentiated. The experiments were carried out on human cell lines, which were derived from 6 tumor types. The following cell lines were used: MCF-7 (breast carcinoma), SW 620 (colon carcinoma), HCT 116 (colon carcinoma), MOLT-4 (acute lymphoblastic leukemia), H 460 (lung carcinoma), HeLa (cervical carcinoma), MiaPaCa-2 (pancreatic carcinoma).
(§2) MCF-7, SW 620, HCT 116, HeLa, MiaPaCa-2 and H 460 cell lines were cultured as monolayers and maintained in Dulbecco's modified Eagle medium (DMEM), while MOLT-4 cells were cultured in suspension in nutritive medium RPMI 1640, both supplemented with 10% fetal bovine serum (FBS), 2 mM L-glutamine, 100 U/ml penicillin and 100 μg/ml streptomycin in a humidified atmosphere with 5% CO2 at 37° C.
(§3) The panel cell lines were inoculated onto a series of standard 96-well microtiter plates on day 0, at 1×10^4 to 3×10^4 cells/ml, depending on the doubling times of the specific cell line. Test agents were added next day to the cell lines in five consecutive 10-fold dilutions (10^−8 to 10^−4 M) and incubated for a further 72 hours. Working dilutions were freshly prepared on the day of testing. The solvent (DMSO) was also tested for eventual inhibitory activity by adjusting its concentration to be the same as in working concentrations. After 72 hours of incubation the cell growth rate was evaluated by performing the MTT assay (Mossman, Methods Immunol, 1983, 65, 55-63.), which detects dehydrogenase activity in viable cells. The MTT Cell Proliferation Assay is a colorimetric assay system, which measures the reduction of a tetrazolium component (MTT) into an insoluble formazan produced by mitochondria of viable cells. For this purpose the substance treated medium was discarded and MTT was added to each well in concentration of 20 μg/40 μl. After four hours of incubation the precipitates were dissolved in 160 μl of dimethylsulphoxide (DMSO). The absorbance (OD, optical density) was measured on a microplate reader at 570 nm. The absorbance is directly proportional to the cell viability. The percentage of growth (PG) of the cell lines was calculated according to one of the following two equations (according to the National Cancer Institute protocols, www.dtp.nci.nih.gov): If (mean ODtest−mean ODtzero)≧0 then PG=100×(mean ODtest−mean ODtzero)/(mean ODctrl−mean ODtzero). If (mean ODtest−mean ODtzero)<0 then: PG=100×(mean ODtest−mean ODtzero)/ODtzero.
(§4) Mean ODtzero=the average of optical density measurements before exposure of cells to the test compound.
(§5) Mean ODtest=the average of optical density measurements after the desired period of time.
(§6) Mean ODctrl=the average of optical density measurements after the desired period of time with no exposure of cells to the test compound.
(§7) Each test point was performed in quadruplicate in three individual experiments. The results were expressed as IC50, a concentration necessary for 50% of proliferation inhibition. Each result is a mean value from three separate experiments. The IC50 measures the growth inhibitory power of the test agent and represents the concentration that causes 50% growth inhibition. The IC50 is calculated from dose-response curves using linear regression analysis by fitting the test concentrations that give PG values above and below the respective reference value (e.g. 50% of inhibition for IC50). Therefore, a “real” value for any of the response parameters is obtained only if at least one of the tested drug concentrations falls above, and likewise at least one falls below the respective reference value. If however, for a given cell line or test agent all of the tested concentrations produce PGs exceeding the respective reference level of effect (e.g. PG value of 50%), then the highest tested concentration is assigned as the default value. […]
For orientation: Formazan colour is commonly taken as a measure of viable cells.

The next assay has as its system SW 620 (colon carcinoma). As to the kind of experiment: MTT proliferation assay, SW 620 cells. The settings on record: Homo sapiens, 72 hours incubation, read-out: IC50 (concentration that causes 50% growth inhibition), SW 620. Here is the method:
as §1, §2, §3, §4, §5, §6, §7

The subject of a further assay is MCF-7 (breast carcinoma). As to the kind of experiment: MTT proliferation assay, MCF-7 cells. The note with it: Homo sapiens, MCF7, 72 hours incubation, read-out: IC50 (concentration that causes 50% growth inhibition), MCF-7. Here is the method: as §1, §2, §3, §4, §5, §6, §7
Assay [1] concerns MiaPaCa-2 (pancreatic carcinoma). As to the kind of experiment: MTT proliferation assay, MiaPaCa-2 cells. The settings on record: Homo sapiens, MIA PaCa-2, 72 hours incubation, read-out: IC50 (concentration that causes 50% growth inhibition), MiaPaCa-2. Here is the method:
as §1, §2, §3, §4, §5, §6, §7

Assay [2] concerns HeLa (cervical carcinoma). Put plainly: MTT proliferation assay, HeLa cells. The note with it: Homo sapiens, 72 hours incubation, read-out: IC50 (concentration that causes 50% growth inhibition), Hela. Here is the method: as §1, §2, §3, §4, §5, §6, §7
Assay [3] relates to HCT 116 (colon carcinoma). As to the kind of experiment: MTT proliferation assay, HCT 116 cells. The settings on record: Homo sapiens, 72 hours incubation, read-out: IC50 (concentration that causes 50% growth inhibition), HCT 116. Here is the method: as §1, §2, §3, §4
(§8) Mean ODtest=the average of optical density measurements after the desired period of time. […]

For assay [4], the system named is MOLT-4 (acute lymphoblastic leukemia). As to the kind of experiment: MTT proliferation assay, MOLT-4 cells. The settings on record: Homo sapiens, 72 hours incubation, read-out: IC50 (concentration that causes 50% growth inhibition), MOLT-4. The method, then: as §1, §2, §3, §4, §8
The test system of assay [5] is various human tumor cell lines. As to the kind of experiment: MTT proliferation assay, panel of tumor cell lines. The note with it: up to maximal tested concentration (c=100 μM) during 72 hours, all cell lines of Table 1. The method, then: The described assay was used to test the effects of compounds on the proliferation of various human tumor cell lines, whereby cytostatic and cytotoxic effects on cells can be differentiated. The experiments were carried out on human cell lines, which were derived from 6 tumor types. The following cell lines were used: MCF-7 (breast carcinoma), SW 620 (colon carcinoma), HCT 116 (colon carcinoma), MOLT-4 (acute lymphoblastic leukemia), H 460 (lung carcinoma), HeLa (cervical carcinoma), MiaPaCa-2 (pancreatic carcinoma). […]
The panel cell lines were inoculated onto a series of standard 96-well microtiter plates on day 0, at 1×10^4 to 3×10^4 cells/ml, depending on the doubling times of the specific cell line. […] After 72 hours of incubation the cell growth rate was evaluated by performing the MTT assay (Mossman, Methods Immunol, 1983, 65, 55-63.), which detects dehydrogenase activity in viable cells. […] The absorbance (OD, optical density) was measured on a microplate reader at 570 nm. The absorbance is directly proportional to the cell viability. The percentage of growth (PG) of the cell lines was calculated according to one of the following two equations (according to the National Cancer Institute protocols, www.dtp.nci.nih.gov): If (mean ODtest−mean ODtzero)≧0 then PG=100×(mean ODtest−mean ODtzero)/(mean ODctrl−mean ODtzero). […]

Each structure is given as a SMILES string.

Regarding `C(CN1CCOCCOCCOCCOCCOCC1)CC12CC3CC(CC(C3)C1)C2` [Compound 2, N-[3-(1-adamantyl)propyl]-aza-18-crown-6], the IC50 in the assay on H 460 (lung carcinoma) worked out at 15 ± 0.1 µM; in the assay on SW 620 (colon carcinoma), 9 ± 3 µM; in the assay on MCF-7 (breast carcinoma) it was 6 ± 5 µM; in assay [1] it was 11 ± 2 µM; in assay [2], 14 ± 3 µM.

Regarding `C1COCCOCCN(CCC23CC4CC(CC(C4)C2)C3)CCOCCOCCO1` [Compound 1, N-[2-(1-adamantyl)ethyl]-aza-18-crown-6], the IC50 was 15 ± 0.6 µM in the assay on H 460 (lung carcinoma); 9 ± 6 µM in the assay on SW 620 (colon carcinoma); 8 ± 4 µM with MCF-7 (breast carcinoma); 12 ± 0.6 µM in assay [1]; 16 ± 0.5 µM in assay [2].

`O=C(CC12CC3CC(CC(C3)C1)C2)N1CCOCCOCCN(C(=O)CC23CC4CC(CC(C4)C2)C3)CCOCCOCC1` [Compound 7, N,N′-Bis[1-oxo-2-(1-adamantyl)ethyl]-4,13-diaza-18-crown-6]: the IC50 in the assay with H 460 (lung carcinoma) came out at 14 ± 1 µM; in the assay with SW 620 (colon carcinoma), 12 ± 5 µM; in the assay with MCF-7 (breast carcinoma), 5 ± 2 µM; in assay [3], 6 µM; in assay [4], 6 ± 6 µM.

With `O=C(CCC12CC3CC(CC(C3)C1)C2)N1CCOCCOCCOCCOCCOCC1` [Compound 4, N-[1-oxo-3-(1-adamantyl)propyl]-aza-18-crown-6], the IC50 came out at 72 ± 7 µM with H 460 (lung carcinoma); 13 ± 2 µM in the assay on SW 620 (colon carcinoma); 17 ± 5 µM in the assay with MCF-7 (breast carcinoma); 30 ± 3.4 µM in assay [1]; 28 ± 7 µM in assay [2].

As for `O=C(CC12CC3CC(CC(C3)C1)C2)N1CCOCCOCCOCCOCCOCC1` [Compound 3, N-[1-oxo-2-(1-adamantyl)ethyl]-aza-18-crown-6], the IC50 (in the assay with H 460 (lung carcinoma); in the assay on SW 620 (colon carcinoma); with MCF-7 (breast carcinoma); in assay [1]; in assay [2]) was greater than 100 µM throughout.

With `C1COCCN(CCC23CC4CC(CC(C4)C2)C3)CCOCCOCCN(CCC23CC4CC(CC(C4)C2)C3)CCO1` [Compound 5, N,N′-Bis[2-(1-adamantyl)ethyl]-4,13-diaza-18-crown-6], the IC50 in the assay on H 460 (lung carcinoma) stood at 4 ± 3 µM; in the assay with SW 620 (colon carcinoma), 2.6 ± 1.9 µM; in the assay on MCF-7 (breast carcinoma) it was 4 ± 0.7 µM; in assay [1], 1.7 ± 0.6 µM; in assay [2] it was 2.3 ± 1.4 µM.

Regarding `C(CN1CCOCCOCCN(CCCC23CC4CC(CC(C4)C2)C3)CCOCCOCC1)CC12CC3CC(CC(C3)C1)C2` [Compound 6, N,N″-Bis[3-(1-adamantyl)propyl]-4,13-diaza-18-crown-6], the IC50 came to 0.2 ± 0.3 µM in the assay with H 460 (lung carcinoma); 1 ± 0.4 µM in the assay on SW 620 (colon carcinoma); 1 ± 0.4 µM in the assay on MCF-7 (breast carcinoma); 0.4 ± 0.4 µM in assay [3]; 1 ± 1 µM in assay [4].

In the case of `O=C(CCC12CC3CC(CC(C3)C1)C2)N1CCOCCOCCN(C(=O)CCC23CC4CC(CC(C4)C2)C3)CCOCCOCC1` [Compound 8, N,N′-Bis[1-oxo-3-(1-adamantyl)propyl]-4,13-diaza-18-crown-6], the IC50 in the assay on H 460 (lung carcinoma) came out at 11 ± 5 µM; in the assay on SW 620 (colon carcinoma), 19 ± 16 µM; with MCF-7 (breast carcinoma) it was 2 ± 0.4 µM; in assay [3], 6 ± 4 µM; in assay [4], 3 ± 0.5 µM.

Turning to `C1COCCOCCNCCOCCOCCN1` [Diaza-18-crown-6, diaza-18-crown-6, reference compound], the IC50 (in the assay with H 460 (lung carcinoma); in the assay with SW 620 (colon carcinoma); in the assay on MCF-7 (breast carcinoma); in assay [1]; in assay [2]; in assay [3]) was greater than 100 µM throughout. Also, the IC50 in assay [4] was greater than 100 µM. Also, the antiproliferative activity entry in assay [5] is recorded as “did not show any antiproliferative activity”.
